Measured values published in patent US20100311741A1, “Bicyclosulfonyl Acid (BCSA) Compounds and Their Use as Therapeutic Agents” (INHIBOX LTD., priority 2007, published 2010).

What was measured:
[1] = system: HDAC (HeLa cell extract); assay: Selectivity assay: HDAC activity, fluorescent assay (Fluor de Lys); format: biochemical; conditions: for Av. HDAC Inhibition, % @100: single concentration @100 (μM)
Experimental: Alternatively, the activity of the compounds as HDAC inhibitors was determined using a commercially available fluorescent assay kit (Fluor de Lys™, BioMol Research Labs, Inc., Plymouth Meeting, USA). HeLa extract was incubated for 1 hour at 37° C. in assay buffer (25 mM HEPES, 137 mM NaCl, 2.7 mM KCl, 1 mM MgCl2, pH 8.0) with 15 μM acetylated substrate in the presence of test compound (HDAC inhibitor). The extent of deacetylation was determined by the addition of 50 μL of a 1-in-500 dilution of Developer, and subsequent measurement of the fluorescence (excitation 355 nm, emission 460 nm), according to the instructions provided with the kit.
The HeLa cell extract was made from HeLa cells (ATCC Ref. No. CCL-2) by freeze-thawing three times in 60 mM Tris.HCl, pH 8.0, 450 mM NaCl, 30% glycerol. Two cell volumes of extraction buffer were used, and particulate material was centrifuged out (20,800 g, 4° C., 10 minutes). The supernatant extract having deacetylase activity was aliquoted and frozen for storage.
(§1) Percent activity (% activity) for each test compound was calculated as:
(§2) % activity={(S^C−B)/(S^o−B)}×100
(§3) wherein S^C denotes signal measured in the presence of enzyme and the compound being tested, S^o denotes signal measured in the presence of enzyme but in the absence of the compound being tested, and B denotes the background signal measured in the absence of both enzyme and compound being tested. The IC50 corresponds to the concentration which achieves 50% activity.

[2] = target: T1, MMP-2 (Homo sapiens, UniProt P08253); assay: Matrix metalloprotease panel, single concentration; format: biochemical
T1 sequence (P08253 110-660): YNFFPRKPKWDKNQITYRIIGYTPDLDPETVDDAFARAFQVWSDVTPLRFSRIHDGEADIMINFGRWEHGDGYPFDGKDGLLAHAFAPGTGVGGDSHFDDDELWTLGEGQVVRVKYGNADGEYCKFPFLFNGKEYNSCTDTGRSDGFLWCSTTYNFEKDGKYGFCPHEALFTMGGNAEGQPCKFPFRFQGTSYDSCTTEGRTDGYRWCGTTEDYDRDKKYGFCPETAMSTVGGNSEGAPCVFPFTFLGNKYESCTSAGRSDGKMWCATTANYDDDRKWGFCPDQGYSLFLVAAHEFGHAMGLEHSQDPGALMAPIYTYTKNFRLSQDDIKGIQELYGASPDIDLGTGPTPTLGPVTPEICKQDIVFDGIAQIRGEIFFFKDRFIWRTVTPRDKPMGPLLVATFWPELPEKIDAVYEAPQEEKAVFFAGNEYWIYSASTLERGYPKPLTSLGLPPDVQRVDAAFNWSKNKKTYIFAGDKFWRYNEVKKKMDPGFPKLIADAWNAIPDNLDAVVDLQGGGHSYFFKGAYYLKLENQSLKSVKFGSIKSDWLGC
Experimental: (§4) Several compounds were tested at a single concentration against a panel of matrix metalloproteases including angiotensin converting enzyme (ACE) and the percentage inhibition determined.

[3] = target: MMP-12 (Homo sapiens, UniProt P39900); assay: Matrix metalloprotease panel, single concentration; format: biochemical
Sequence of MMP-12 (P39900 106-470, species assumed): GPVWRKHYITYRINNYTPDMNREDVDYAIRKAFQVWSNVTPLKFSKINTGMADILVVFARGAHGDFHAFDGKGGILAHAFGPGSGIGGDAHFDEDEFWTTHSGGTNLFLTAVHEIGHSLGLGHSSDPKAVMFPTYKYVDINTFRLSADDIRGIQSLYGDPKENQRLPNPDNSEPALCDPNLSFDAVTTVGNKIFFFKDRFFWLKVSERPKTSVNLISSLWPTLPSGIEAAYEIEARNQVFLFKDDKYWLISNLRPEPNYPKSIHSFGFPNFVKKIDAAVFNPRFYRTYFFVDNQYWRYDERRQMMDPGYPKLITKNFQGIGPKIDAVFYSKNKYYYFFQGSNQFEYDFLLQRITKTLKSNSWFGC
Experimental: as §4

[4] = target: MMP-14 (Homo sapiens, UniProt P50281); assay: Matrix metalloprotease panel, single concentration; format: biochemical
Experimental: as §4

[5] = target: MMP-13 (Homo sapiens, UniProt P45452); assay: Matrix metalloprotease panel, single concentration; format: biochemical
Experimental: as §4

[6] = target: MMP-9 (Homo sapiens, UniProt P14780); assay: Matrix metalloprotease panel, single concentration; format: biochemical
Sequence of MMP-9 (P14780 94-707, species assumed): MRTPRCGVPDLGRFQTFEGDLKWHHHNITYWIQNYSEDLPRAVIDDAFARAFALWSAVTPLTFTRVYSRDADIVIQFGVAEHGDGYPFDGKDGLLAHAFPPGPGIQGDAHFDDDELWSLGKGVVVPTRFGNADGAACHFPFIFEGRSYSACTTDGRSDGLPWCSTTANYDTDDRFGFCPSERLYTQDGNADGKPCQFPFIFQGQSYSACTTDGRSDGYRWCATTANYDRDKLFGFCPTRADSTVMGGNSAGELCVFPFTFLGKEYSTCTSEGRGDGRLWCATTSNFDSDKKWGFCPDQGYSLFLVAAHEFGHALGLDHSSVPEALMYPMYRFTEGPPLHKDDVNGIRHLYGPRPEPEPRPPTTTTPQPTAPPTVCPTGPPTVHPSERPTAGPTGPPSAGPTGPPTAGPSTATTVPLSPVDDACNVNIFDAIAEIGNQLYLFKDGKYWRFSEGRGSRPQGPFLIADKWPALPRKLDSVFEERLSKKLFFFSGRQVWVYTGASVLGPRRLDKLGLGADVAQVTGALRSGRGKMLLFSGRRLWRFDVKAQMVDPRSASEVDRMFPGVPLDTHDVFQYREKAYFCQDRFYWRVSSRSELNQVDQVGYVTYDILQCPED
Experimental: as §4

[7] = target: angiotensin converting enzyme (ACE) (Homo sapiens, UniProt P12821); assay: Matrix metalloprotease panel, single concentration; format: biochemical
Sequence of angiotensin converting enzyme (ACE) (P12821 30-1306, species assumed): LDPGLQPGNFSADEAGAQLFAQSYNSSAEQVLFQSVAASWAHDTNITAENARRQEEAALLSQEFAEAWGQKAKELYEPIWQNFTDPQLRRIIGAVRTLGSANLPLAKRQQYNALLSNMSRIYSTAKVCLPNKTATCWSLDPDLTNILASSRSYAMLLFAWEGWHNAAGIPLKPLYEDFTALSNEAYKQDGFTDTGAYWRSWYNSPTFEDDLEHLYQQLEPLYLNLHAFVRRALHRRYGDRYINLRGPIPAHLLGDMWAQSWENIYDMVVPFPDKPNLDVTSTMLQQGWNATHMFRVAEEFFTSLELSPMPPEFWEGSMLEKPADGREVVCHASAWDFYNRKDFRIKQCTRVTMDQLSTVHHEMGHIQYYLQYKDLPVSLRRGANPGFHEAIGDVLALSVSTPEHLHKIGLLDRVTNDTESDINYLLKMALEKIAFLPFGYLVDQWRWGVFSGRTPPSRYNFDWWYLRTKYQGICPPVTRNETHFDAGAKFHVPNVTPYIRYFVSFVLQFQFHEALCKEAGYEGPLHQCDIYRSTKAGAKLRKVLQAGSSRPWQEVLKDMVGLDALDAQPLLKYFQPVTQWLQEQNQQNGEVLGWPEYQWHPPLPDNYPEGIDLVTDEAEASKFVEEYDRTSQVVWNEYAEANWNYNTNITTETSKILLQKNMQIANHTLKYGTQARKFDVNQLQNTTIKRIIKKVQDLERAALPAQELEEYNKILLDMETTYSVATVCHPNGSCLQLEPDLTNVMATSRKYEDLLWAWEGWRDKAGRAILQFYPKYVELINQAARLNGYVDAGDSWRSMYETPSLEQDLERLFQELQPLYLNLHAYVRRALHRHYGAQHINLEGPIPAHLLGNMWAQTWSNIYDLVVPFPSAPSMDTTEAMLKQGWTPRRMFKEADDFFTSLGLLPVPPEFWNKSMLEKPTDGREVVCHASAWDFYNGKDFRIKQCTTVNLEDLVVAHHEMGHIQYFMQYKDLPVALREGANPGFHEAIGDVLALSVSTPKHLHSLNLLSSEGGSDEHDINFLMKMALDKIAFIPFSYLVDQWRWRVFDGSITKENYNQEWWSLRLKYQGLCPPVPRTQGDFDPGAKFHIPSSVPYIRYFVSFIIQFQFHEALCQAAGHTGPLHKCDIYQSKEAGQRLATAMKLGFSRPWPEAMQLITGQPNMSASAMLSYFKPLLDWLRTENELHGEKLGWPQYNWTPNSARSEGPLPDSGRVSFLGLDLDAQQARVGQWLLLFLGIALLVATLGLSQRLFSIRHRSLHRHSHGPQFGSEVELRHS
Experimental: as §4

[8] = target: T2, MMP-1 (Homo sapiens, UniProt P03956); assay: Matrix metalloprotease panel, single concentration; format: biochemical
T2 sequence (P03956 100-469): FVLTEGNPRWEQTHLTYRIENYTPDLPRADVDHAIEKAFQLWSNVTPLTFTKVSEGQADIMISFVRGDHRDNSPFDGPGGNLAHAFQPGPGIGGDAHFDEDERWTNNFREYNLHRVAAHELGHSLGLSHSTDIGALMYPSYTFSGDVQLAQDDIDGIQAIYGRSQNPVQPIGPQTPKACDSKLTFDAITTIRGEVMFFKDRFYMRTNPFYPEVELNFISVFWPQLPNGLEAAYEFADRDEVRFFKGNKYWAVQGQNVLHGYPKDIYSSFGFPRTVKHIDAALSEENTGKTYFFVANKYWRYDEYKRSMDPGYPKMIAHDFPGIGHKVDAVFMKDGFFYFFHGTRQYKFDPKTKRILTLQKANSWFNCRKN
Experimental: as §4

[9] = target: MMP-3 (Homo sapiens, UniProt P08254); assay: Matrix metalloprotease panel, single concentration; format: biochemical
Sequence of MMP-3 (P08254 100-477, species assumed): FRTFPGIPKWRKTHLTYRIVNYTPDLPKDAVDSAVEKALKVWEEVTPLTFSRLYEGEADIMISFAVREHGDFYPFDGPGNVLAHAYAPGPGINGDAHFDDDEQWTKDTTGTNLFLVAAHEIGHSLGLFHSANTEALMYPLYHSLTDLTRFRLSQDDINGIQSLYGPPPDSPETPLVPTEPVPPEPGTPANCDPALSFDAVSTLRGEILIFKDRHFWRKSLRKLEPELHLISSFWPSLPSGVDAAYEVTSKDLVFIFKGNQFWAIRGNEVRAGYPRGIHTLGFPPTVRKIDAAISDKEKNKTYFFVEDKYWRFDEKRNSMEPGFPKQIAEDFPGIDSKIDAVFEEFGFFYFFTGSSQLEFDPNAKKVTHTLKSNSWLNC
Experimental: as §4

[10] = target: MMP-10 (Homo sapiens, UniProt P09238); assay: Matrix metalloprotease panel, single concentration; format: biochemical
Sequence of MMP-10 (P09238 99-476, species assumed): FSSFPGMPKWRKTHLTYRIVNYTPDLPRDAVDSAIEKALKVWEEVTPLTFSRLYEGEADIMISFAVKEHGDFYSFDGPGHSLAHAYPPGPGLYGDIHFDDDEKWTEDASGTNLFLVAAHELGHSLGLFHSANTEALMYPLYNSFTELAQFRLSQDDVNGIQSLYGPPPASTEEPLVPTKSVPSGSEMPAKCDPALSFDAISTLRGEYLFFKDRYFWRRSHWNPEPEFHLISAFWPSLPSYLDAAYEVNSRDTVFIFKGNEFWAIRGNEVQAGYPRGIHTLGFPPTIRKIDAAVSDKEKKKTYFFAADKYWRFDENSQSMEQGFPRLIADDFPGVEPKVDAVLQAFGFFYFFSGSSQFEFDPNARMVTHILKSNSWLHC
Experimental: as §4

[11] = target: MMP-8 (Homo sapiens, UniProt P22894); assay: Matrix metalloprotease panel, single concentration; format: biochemical
Sequence of MMP-8 (P22894 101-467, species assumed): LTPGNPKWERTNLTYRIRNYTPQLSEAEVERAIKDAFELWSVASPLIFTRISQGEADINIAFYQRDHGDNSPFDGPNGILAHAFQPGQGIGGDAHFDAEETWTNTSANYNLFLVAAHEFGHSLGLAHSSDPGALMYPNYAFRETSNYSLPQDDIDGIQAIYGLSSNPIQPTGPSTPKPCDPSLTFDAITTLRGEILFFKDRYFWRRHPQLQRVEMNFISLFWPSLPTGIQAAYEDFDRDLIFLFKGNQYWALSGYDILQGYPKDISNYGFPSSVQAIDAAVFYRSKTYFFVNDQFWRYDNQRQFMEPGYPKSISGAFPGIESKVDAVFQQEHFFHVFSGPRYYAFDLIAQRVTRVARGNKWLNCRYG
Experimental: as §4

[12] = target: T3, MMP-7 (Homo sapiens, UniProt P09237); assay: Matrix metalloprotease panel, single concentration; format: biochemical
T3 sequence (P09237 95-267): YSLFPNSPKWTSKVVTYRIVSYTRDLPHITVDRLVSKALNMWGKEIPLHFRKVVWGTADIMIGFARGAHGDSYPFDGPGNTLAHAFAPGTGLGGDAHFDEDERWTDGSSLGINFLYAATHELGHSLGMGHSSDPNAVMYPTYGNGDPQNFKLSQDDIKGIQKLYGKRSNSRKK
Experimental: as §4

[13] = target: T4, Human recombinant TACE enzyme (Homo sapiens, UniProt P78536); assay: TACE assay (fluorescent peptide substrate); format: biochemical; conditions: 3.5 h; single concentration @100 (μM); read-out: Av. TACE Inhibition, % @100
T4 construct: purchased R and D Systems, Abingdon, UK 930-ADB
T4 sequence (P78536 215-671 limits assumed): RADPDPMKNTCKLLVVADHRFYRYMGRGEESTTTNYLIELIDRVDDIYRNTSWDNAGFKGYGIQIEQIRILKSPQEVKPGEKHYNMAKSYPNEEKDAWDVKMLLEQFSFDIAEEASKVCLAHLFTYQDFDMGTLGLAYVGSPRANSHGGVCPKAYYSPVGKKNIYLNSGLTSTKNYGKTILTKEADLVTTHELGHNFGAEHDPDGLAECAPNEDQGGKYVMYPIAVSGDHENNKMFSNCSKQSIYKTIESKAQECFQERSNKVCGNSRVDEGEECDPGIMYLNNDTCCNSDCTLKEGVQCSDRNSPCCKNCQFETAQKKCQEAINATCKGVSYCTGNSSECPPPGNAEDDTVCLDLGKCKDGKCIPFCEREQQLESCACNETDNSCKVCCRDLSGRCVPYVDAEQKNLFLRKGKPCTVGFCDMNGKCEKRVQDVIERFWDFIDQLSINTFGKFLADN
Experimental: The activity of the compounds as TACE inhibitors was determined using a commercially available peptide substrate (M-2255, Bachem UK Ltd, St. Helens, UK) and recombinant TACE enzyme (930-ADB, R and D Systems, Abingdon, UK). Human recombinant TACE enzyme (5 ng/30 μL) was incubated for 3.5 hour at 37° C. in assay buffer (25 mM Tris.HCl, 2.5 μM ZnCl2, 0.005% Brij 35, pH 8.0) with 5 μM substrate in the presence of test compound (TACE inhibitor). The extent of TACE activity was determined by measurement of the fluorescence (excitation 355 nm, emission 460 nm).
as §1, §2, §3

## O=C(CC1c2ccccc2S(=O)(=O)N1c1ccccc1)NO (centres unmarked) [IX-001]
[1]
  Av. HDAC Inhibition, % @100: 10%@100
[2]
  inhibition at 5 µM: 19%
[3]
  inhibition at 5 µM: 56%
[4]
  inhibition at 5 µM: 2%
[5]
  inhibition at 5 µM: 24%
[6]
  inhibition at 5 µM: 19%
[7]
  inhibition at 5 µM: 6%
[8]
  inhibition at 5 µM: 0%
[9]
  inhibition at 5 µM: 1%
[10]
  inhibition at 5 µM: 0%
[11]
  inhibition at 5 µM: 30%
[12]
  inhibition at 5 µM: 0%

## O=C(C[C@H]1c2ccccc2S(=O)(=O)N1c1ccccc1)NO [IX-002]
[1]
  Av. HDAC Inhibition, % @100: 43%@100

## O=C(C[C@@H]1c2ccccc2S(=O)(=O)N1c1ccccc1)NO [IX-003]
[1]
  Av. HDAC Inhibition, % @100: 44%@100

## O=C(CC1c2ccccc2S(=O)(=O)N1c1ccc2ccccc2c1)NO (centres unmarked) [IX-004]
[1]
  Av. HDAC Inhibition, % @100: 32%@100

## COc1cccc(N2C(CC(=O)NO)c3ccccc3S2(=O)=O)c1 (centres unmarked) [IX-009]
[13]
  inhibition at 100 µM: 52%
[1]
  Av. HDAC Inhibition, % @100: 24%@100

## COc1ccc(N2C(CC(=O)NO)c3ccccc3S2(=O)=O)cc1 (centres unmarked) [IX-010]
[1]
  Av. HDAC Inhibition, % @100: 17%@100

## O=C(CC1c2ccccc2S(=O)(=O)N1c1ccc(Cl)cc1)NO (centres unmarked) [IX-012]
[1]
  Av. HDAC Inhibition, % @100: 11%@100

## O=C(CC1c2ccccc2S(=O)(=O)N1c1ccc(OC(F)(F)F)cc1)NO (centres unmarked) [IX-020]
[1]
  Av. HDAC Inhibition, % @100: −2%@100

## CCCCOc1ccc(N2C(CC(=O)NO)c3ccccc3S2(=O)=O)cc1 (centres unmarked) [IX-036]
[1]
  Av. HDAC Inhibition, % @100: −4%@100

## CC#CCOc1ccc(N2C(CC(=O)NO)c3ccccc3S2(=O)=O)cc1 (centres unmarked) [IX-045]
[1]
  Av. HDAC Inhibition, % @100: 38%@100
[2]
  inhibition at 5 µM: 10%
[3]
  inhibition at 5 µM: 37%
[4]
  inhibition at 5 µM: 0%
[5]
  inhibition at 5 µM: -12%
[6]
  inhibition at 5 µM: -2%
[7]
  inhibition at 5 µM: -8%
[8]
  inhibition at 5 µM: -4%
[9]
  inhibition at 5 µM: 11%
[10]
  inhibition at 5 µM: 6%
[11]
  inhibition at 5 µM: 21%
[12]
  inhibition at 5 µM: -5%

## Cc1cc(COc2ccc(N3C(CC(=O)NO)c4ccccc4S3(=O)=O)cc2)c2ccccc2n1 (centres unmarked) [IX-048]
other
  melting point: 195 to 197 °C
[1]
  Av. HDAC Inhibition, % @100: 19%@100
[2]
  inhibition at 5 µM: -3%
[3]
  inhibition at 5 µM: 49%
[4]
  inhibition at 5 µM: 4%
[5]
  inhibition at 5 µM: -10%
[6]
  inhibition at 5 µM: -8%
[7]
  inhibition at 5 µM: -4%
[8]
  inhibition at 5 µM: 6%
[9]
  inhibition at 5 µM: 34%
[10]
  inhibition at 5 µM: 9%
[11]
  inhibition at 5 µM: 13%
[12]
  inhibition at 5 µM: 31%

## COc1ccc2c(c1)C(CC(=O)NO)N(c1ccccc1)S2(=O)=O (centres unmarked) [IX-068]
[1]
  Av. HDAC Inhibition, % @100: 44%@100

## O=C(CC1c2ccccc2S(=O)(=O)N1c1cccc(CO)c1)NO (centres unmarked) [IX-075]
[13]
  inhibition at 100 µM: 64%
[1]
  Av. HDAC Inhibition, % @100: 2%@100

## CCOc1ccc2c(c1)C(CC(=O)NO)N(c1ccccc1)S2(=O)=O (centres unmarked) [IX-078]
[1]; 15 μM acetylated substrate, 1 hour at 37° C., read-out: Av. HDAC Inhibition EC50
  EC50: 23.7 µM

## O=C(NO)C1c2c(Cl)cccc2S(=O)(=O)N1c1ccccc1 (centres unmarked) [IX-096]
[13]
  inhibition at 100 µM: 27%

## O=C(C[C@@H]1c2ccccc2S(=O)(=O)[C@H]1c1ccccc1)NO [IX-097]
[1]
  Av. HDAC Inhibition, % @100: 20%@100

## O=C(O)CC1c2ccccc2S(=O)(=O)N1c1ccccc1 (centres unmarked) [IX-099]
[13]
  inhibition at 100 µM: 9%
other
  melting point: 178 to 179 °C (dec.)

## CC#CCOc1ccc(N2C(CC(=O)O)c3ccccc3S2(=O)=O)cc1 (centres unmarked) [IX-100]
[13]
  inhibition at 100 µM: 50%
other
  melting point: 160 to 161 °C
